Results published in patent US20070167466A1, “"Pyrazolo [4,3-d]pyrimidines, processes for their preparation and methods of use"” (priority 2003, published 2007).
Like-named read-outs stand apart in the source and are kept apart here.

Columns and labels:
[1] = biological target: T1, CDK1 (p34^cdc2, cyclin B) (Homo sapiens, UniProt P06493); experiment: CDK inhibition assay, p34^cdc2 kinase, histone H1 phosphorylation; assay type: biochemical; conditions: 15 μM ATP, histone H1, 30° C.
T1 construct: made in house; host or cells: Sf9 insect cells (baculovirus co-infection)
T1 sequence (P06493 whole entry, species assumed): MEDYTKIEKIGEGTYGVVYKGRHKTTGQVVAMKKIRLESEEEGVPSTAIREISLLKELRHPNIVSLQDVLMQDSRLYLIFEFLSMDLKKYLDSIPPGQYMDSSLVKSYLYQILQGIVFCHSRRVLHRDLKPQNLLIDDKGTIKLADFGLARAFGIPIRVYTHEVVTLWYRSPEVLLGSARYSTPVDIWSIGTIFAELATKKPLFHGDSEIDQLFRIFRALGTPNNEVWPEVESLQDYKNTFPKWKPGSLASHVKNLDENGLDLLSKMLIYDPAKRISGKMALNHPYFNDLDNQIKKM
T1 sequence (P14635 whole entry partner, species assumed): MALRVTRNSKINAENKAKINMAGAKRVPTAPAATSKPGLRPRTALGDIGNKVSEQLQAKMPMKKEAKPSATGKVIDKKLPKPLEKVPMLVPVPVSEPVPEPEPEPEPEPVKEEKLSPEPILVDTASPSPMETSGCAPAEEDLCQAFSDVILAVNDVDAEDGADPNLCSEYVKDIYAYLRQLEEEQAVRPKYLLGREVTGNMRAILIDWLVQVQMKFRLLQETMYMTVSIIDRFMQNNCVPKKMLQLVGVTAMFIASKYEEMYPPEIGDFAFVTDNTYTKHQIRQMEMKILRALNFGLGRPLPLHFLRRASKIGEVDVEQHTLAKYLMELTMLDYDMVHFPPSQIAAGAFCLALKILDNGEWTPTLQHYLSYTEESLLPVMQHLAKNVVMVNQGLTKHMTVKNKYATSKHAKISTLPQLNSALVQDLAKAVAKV
Method: The controls contain suitable dilutions of DMSO.
2-glycerolphosphate, 1 mM NaF, 1 mM DTT

[2] = biological target: CDK2 (p33^cdk2, cyclin E) (Homo sapiens, UniProt P24941); experiment: CDK inhibition assay, p33^cdk2 kinase, histone H1 phosphorylation;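 also: Baculovirus-expressed kinase/cyclin complex from Sf9 cell extract, 10 min at 30 °C, phosphoproteins separated by SDS gel and quantified by image analysis, activity relative to DMSO control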
Method: Cyclin-dependent kinases (p34^cdc2, p33^cdk2) and cyclins (cyclin B, E) are produced in Sf9 insect cells coinfected with appropriate baculoviral constructs. The cells are harvested 68-72 hrs post infection in lysis buffer for 30 min on ice and the soluble fraction is recovered by centrifugation at 14.000 g for 10 min. The protein extract is stored at −80° C.
Lysis buffer: 50mM Tris pH 7.4, 150mM NaCl, 5 mM EDTA, 20 mM NaF, 1% Tween, 1 mM DTT, 0.1 mM PMSF, leupeptine, aprotonine.
To carry out experiments on kinetics under linear conditions, the final point test system for kinase activity measurement is used. The kinase is added to reaction mixture in such a way as to obtain linear activity with respect to the concentration of enzyme and with respect to time.
Kinase activity is determined at 30° C. in the kinase buffer.
Tested compounds are usually dissolved to 100 mM solutions in DMSO, final concentration of DMSO in reaction mixture never exceeds 1%. The controls contain suitable dilutions of DMSO.
After 10 min, addition 3×SDS sample buffer stops the incubations. Phosphorylated proteins are separated electrophoretically using 10% SDS polyacrylamide gel. The measurement of kinase activity is done using digital image analysis.
The kinase activity is expressed as a percentage of maximum activity, the apparent inhibition constants are determined by graphic analysis.
Kinase buffer: 50 mM Hepes pH 7.4, 10 mM MgCl2, 5 mM EGTA, 10 mM

[3] = tested on: K562 (human chronic myeloblastic leukemia); experiment: In vitro cytotoxic activity, Calcein AM, three days; assay type: cell-based; conditions: read-out: K-562 IC50
Method: (§1) We have been using the following cell lines: HELA (human cervical carcinoma), MCF7 (human breast adenocarcinoma), NIH 3T3 (mouse fibroblasts), HOS (human osteogenic sarcoma), HL 60 (human promyelocytic leukemia), G 361 (human malignant melanoma), K562 (human chronic myeloblastic leukemia), CEM (human lymphoblastoid leukaemia). Tested drugs were added to the cell cultures in six different concentration and kept at 37° C. and 5% CO2 for three days. All cell lines were grown in DMBM medium (Gibco BRL) supplemented with 10% (v/v) fetal bovine serum and L-glutamine and maintained at 37° C. in a humidified atmosphere with 5% CO2. 10^4 cells were seeded into each well of 96 well plate, allowed to stabilize for at least 2 h and then tested compounds were added at various concentrations ranging from 200 to 0.2 μM in triplicates. Three days after drug addition Calcein AM solution (Molecular Probes) was added and let to enter the cells for 1 hour. Fluorescence of viable cells was quantified employing Fluoroskan Ascent (Microsystems).

[4] = tested on: MCF7 (human breast adenocarcinoma); experiment: as above; assay type: cell-based
Method: as §1

Structure (SMILES)	IC50 [1]	IC50 [2]	IC50 ([3]; Homo sapiens, K562, 72 h)	IC50 ([4]; Homo sapiens, MCF7, 72 h)	IC50 [3]	IC50 [4]
CCCCCNc1ncnc2c(CC)n[nH]c12 [pentylamino / ethyl]					62 µM	41 µM
COc1ccc(CNc2ncnc3c(C)n[nH]c23)cc1O [3-hydroxy-4-methoxybenzylamino / methyl]					79 µM	58 µM
CCc1n[nH]c2c(Nc3cc(N)cc(Cl)c3)ncnc12 [3-chloro-5-aminoanilino / ethyl]	20 µM	15.5 µM				
CCc1n[nH]c2c(NCc3ccc(OC)c(O)c3)ncnc12 [3-hydroxy-4-methoxybenzylamino / ethyl]					72 µM	52 µM
CCc1n[nH]c2c(NCc3ccccc3Cl)ncnc12 [2-chlorobenzylamino / ethyl]	12 µM	12 µM				
COc1cccc(CNc2ncnc3c(C(C)C)n[nH]c23)c1O					0.8 µM	0.6 µM
CCc1n[nH]c2c(NC3CCC(N)CC3)ncnc12 (stereo not shown) [4-aminocyclohexylamino / ethyl]					110 µM	71 µM
CCc1n[nH]c2c(Nc3ccc(C(=O)O)c(Cl)c3)ncnc12 [3-chloro-4-carboxyanilino / ethyl]	36 µM	32 µM				
CCc1n[nH]c2c(NCc3ccc(OC)cc3)ncnc12 [4-methoxybenzylamino / ethyl]					48 µM	31 µM
Cc1n[nH]c2c(Nc3ccc(O)c(C(=O)O)c3)ncnc12 [3-carboxy-4-hydroxyanilino / methyl]	34 µM	40 µM				
CCc1n[nH]c2c(NCc3ccccc3C)ncnc12 [2-methylbenzylamino / ethyl]	15 µM	14 µM				
CCc1n[nH]c2c(Nc3ccc(O)c(C(=O)O)c3)ncnc12 [3-carboxy-4-hydroxyanilino / ethyl]	24 µM	22 µM				
COc1ccc(CNc2ncnc3c(C)n[nH]c23)cc1 [4-methoxybenzylamino / methyl]					53 µM	35 µM
CC(C)c1n[nH]c2c(Nc3ccc(O)c(C(=O)O)c3)ncnc12 [3-carboxy-4-hydroxyanilino / isopropyl]	3.1 µM	4.2 µM	25 µM	12 µM		
CC(C)c1n[nH]c2c(Nc3ccc(Cl)c(N)c3)ncnc12 [3-amino-4-chloroanilino / isopropyl]	2.9 µM	3 µM	0.3 µM	0.2 µM		
Cc1n[nH]c2c(NCc3ccccc3Br)ncnc12 [2-bromobenzylamino / methyl]					68 µM	56 µM

Structure (SMILES)	IC50 [1]	IC50 [2]	IC50 ([3]; Homo sapiens, K562, 72 h)	IC50 ([4]; Homo sapiens, MCF7, 72 h)	IC50 [3]	IC50 [4]
Cc1n[nH]c2c(NCc3ccc(O)cc3)ncnc12 [4-hydroxybenzylamino / methyl]					> 167 µM	> 167 µM
CCc1n[nH]c2c(Nc3ccc(Cl)c(C(=O)O)c3)ncnc12 [3-carboxy-4-chloroanilino / ethyl]	38 µM	40 µM				
Cc1n[nH]c2c(Nc3ccc(C(=O)O)c(Cl)c3)ncnc12 [3-chloro-4-carboxyanilino / methyl]	25 µM	28 µM				
Cc1n[nH]c2c(NCc3ccccc3)ncnc12 [benzylamino / methyl]					29 µM	67 µM
CC(C)c1n[nH]c2c(NCc3ccccc3N)ncnc12 [2-aminobenzylamino / isopropyl]					2.1 µM	0.8 µM
Cc1n[nH]c2c(NC3CCC(N)CC3)ncnc12 (stereo not shown) [4-aminocyclohexylamino / methyl]					115 µM	75 µM
CCc1n[nH]c2c(Nc3ccc(N)c(Cl)c3)ncnc12 [3-chloro-4-aminoanilino / ethyl]	35 µM	28 µM				
CCCCCNc1ncnc2c(C)n[nH]c12 [pentylamino / methyl]					67 µM	45 µM
CCc1n[nH]c2c(Nc3ccc(Cl)c(N)c3)ncnc12 [3-amino-4-chloroanilino / ethyl]	23 µM	22 µM				
Cc1ccccc1CNc1ncnc2c(C)n[nH]c12 [2-methylbenzylamino / methyl]	18 µM	17 µM				
Cc1n[nH]c2c(Nc3ccc(Cl)c(N)c3)ncnc12 [3-amino-4-chloroanilino / methyl]	27 µM	28 µM				
Cc1n[nH]c2c(Nc3ccc(Cl)c(C(=O)O)c3)ncnc12 [3-carboxy-4-chloroanilino / methyl]	24 µM	29 µM				
COc1ccc(O)c(CNc2ncnc3c(C(C)C)n[nH]c23)c1					1.2 µM	0.9 µM
CCc1n[nH]c2c(NCc3ccccc3Br)ncnc12 [2-bromobenzylamino / ethyl]					60 µM	54 µM
COc1ccc(CNc2ncnc3c(C(C)C)n[nH]c23)c(O)c1					0.5 µM	0.2 µM

The next lines start with results.

IC50 [1]	IC50 [2]	Structure (SMILES)	IC50 ([3]; Homo sapiens, K562, 72 h)	IC50 ([4]; Homo sapiens, MCF7, 72 h)	IC50 [3]	IC50 [4]
32 µM	32 µM	CCc1n[nH]c2c(NC3CCCC3)ncnc12 [cyclopentylamino / ethyl]				
2.1 µM	3.1 µM	CC(C)c1n[nH]c2c(Nc3ccc(Cl)cc3)ncnc12 [4-chloroanilino / isopropyl]	4 µM	3 µM		
29 µM	46 µM	Cc1n[nH]c2c(NC3CCCC3)ncnc12 [cyclopentylamino / methyl]				
9.7 µM	10.2 µM	CCc1n[nH]c2c(NCc3cccc(Cl)c3)ncnc12 [3-chlorobenzylamino / ethyl]				
1.8 µM	0.2 µM	CC(C)c1n[nH]c2c(NCc3ccc(O)cc3)ncnc12 [4-hydroxybenzylamino / isopropyl, 7-(4-hydroxybenzyl)amino-3-isopropylpyrazolo[4,3-d]pyrimidine]	> 167 µM	152 µM		
20 µM	18 µM	Cc1n[nH]c2c(NCc3ccc(Cl)cc3)ncnc12 [4-chlorobenzylamino / methyl]				
8.2 µM	5.3 µM	CCc1n[nH]c2c(NCc3ccco3)ncnc12 [furfurylamino / ethyl]	> 167 µM	135 µM		
22 µM	18 µM	CCc1n[nH]c2c(Nc3ccc(Br)cc3)ncnc12 [4-bromoanilino / ethyl]				
45 µM	41 µM	CCc1n[nH]c2c(NCC=C(C)C)ncnc12 [isopentenylamino / ethyl]				
14 µM	20 µM	CCc1n[nH]c2c(Nc3ccccc3)ncnc12 [anilino / ethyl]				
24 µM	18 µM	CCc1n[nH]c2c(Nc3cccc(Cl)c3)ncnc12 [3-chloroanilino / ethyl]	28 µM	19 µM		
12 µM	11 µM	CCc1n[nH]c2c(NCc3ccccc3)ncnc12 [benzylamino / ethyl]	81 µM	62 µM		
5.5 µM	7.2 µM	Cc1n[nH]c2c(NCc3cccc(O)c3)ncnc12 [3-hydroxybenzylamino / methyl]	143 µM	119 µM		
35 µM	28 µM	Cc1n[nH]c2c(NC3CCC3)ncnc12 [cyclobutylamino / methyl]	101 µM	89 µM		
39 µM	42 µM	CCc1n[nH]c2c(NC3CCCCC3)ncnc12 [cyclohexylamino / ethyl]				
8.8 µM	9.4 µM	Cc1n[nH]c2c(NCc3cccc(Cl)c3)ncnc12 [3-chlorobenzylamino / methyl]				
25 µM	29 µM	C=CCNc1ncnc2c(CC)n[nH]c12 [allylamino / ethyl]				
18 µM	17 µM	CCc1n[nH]c2c(NCc3cccc(C)c3)ncnc12 [3-methylbenzylamino / ethyl]				
34 µM	32 µM	Cc1n[nH]c2c(NC3CCCCC3)ncnc12 [cyclohexylamino / methyl]				
19 µM	24 µM	Cc1n[nH]c2c(Nc3cc(N)cc(Cl)c3)ncnc12 [3-chloro-5-aminoanilino / methyl]				
26 µM	28 µM	Cc1n[nH]c2c(Nc3ccc(Cl)cc3)ncnc12 [4-chloroanilino / methyl]				
28 µM	31 µM	Cc1cccc(CNc2ncnc3c(C)n[nH]c23)c1 [3-methylbenzylamino / methyl]				
42 µM	48 µM	C=CCNc1ncnc2c(C)n[nH]c12 [allylamino / methyl]				
14 µM	16 µM	CCc1n[nH]c2c(Nc3ccc(Cl)cc3)ncnc12 [4-chloroanilino / ethyl]				
22 µM	21 µM	Cc1n[nH]c2c(Nc3ccccc3)ncnc12 [anilino / methyl]				
26 µM	19 µM	CCc1n[nH]c2c(NCc3ccc(Cl)cc3)ncnc12 [4-chlorobenzylamino / ethyl]				
45 µM	44 µM	CC(C)=CCNc1ncnc2c(C)n[nH]c12 [isopentenylamino / methyl]				
16 µM	18 µM	Cc1n[nH]c2c(Nc3ccc(Br)cc3)ncnc12 [4-bromoanilino / methyl]				
